Our source for the EC50 values is US8796256B2 (Janssen Pharmaceutica NV, priority 2010, dated 2014).

Molecules are shown by their SMILES.

The assay concerns the target T1, ERR1 (also known as ERR-α or ERR-1) (Homo sapiens, UniProt P11474).
T1 sequence (P11474 193-421 limits assumed): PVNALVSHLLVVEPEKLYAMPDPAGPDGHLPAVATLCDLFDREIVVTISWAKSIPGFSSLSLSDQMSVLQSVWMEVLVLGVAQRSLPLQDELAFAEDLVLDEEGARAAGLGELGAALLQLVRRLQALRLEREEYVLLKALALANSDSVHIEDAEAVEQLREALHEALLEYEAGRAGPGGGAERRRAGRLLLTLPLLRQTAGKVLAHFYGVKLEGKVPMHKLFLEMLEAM
The experiment in a line: TR-FRET assay (disruption of co-activator peptide binding to ERR1 LBD). In kind it is biochemical. The following applies: 6 nM 6His-ERR1LBD, 6 nM GST-SRC-2 peptide; average of 3 independent experiments. In a few lines: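 Homogeneous TR-FRET measuring displacement of GST-hSRC2 co-activator peptide (6 nM) from His-tagged ERR1 LBD (6 nM), detected with α-GST Eu cryptate (30 nM) and α-His-XL665 (7.5 nM). Buffer 25 mM Tris pH 8, 2.5 mM Hepes, 20 mM KCl, 1 mM DTT, 0.05 mg/mL delipidated BSA; equilibration 4-18 h at 25° C. Hyperbolic dose-response fit, mean of 3 experiments.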
For orientation: Time-resolved FRET reads energy transfer from a long-lived donor to a nearby acceptor.
By EC50 is commonly meant the concentration giving half of the maximal effect. Read a low EC50 as a more potent agent. On to `N#CCN1CC[C@@H](N2C(=O)S/C(=C\c3ccc4c(cnn4Cc4ccc(Cl)cc4C(F)(F)F)c3)C2=O)[C@H](F)C1` [Compound 388, {(3R,4R)-4-[(5Z)-5-({1-[4-Chloro-2-(trifluoromethyl)benzyl]-1H-indazol-5-yl}methylidene)-2,4-dioxo-1,3-thiazolidin-3-yl]-3-fluoropiperidin-1-yl}acetonitrile], for which the EC50 came out at 34 nM. The same measure for `O=C1S/C(=C\c2ccc3c(cnn3Cc3ccc(Cl)cc3C(F)(F)F)c2)C(=O)N1CCNS(=O)(=O)N1CCCC1` [Compound 399, N-{2-[(5Z)-5-({1-[4-Chloro-2-(trifluoromethyl)benzyl]-1H-indazol-5-yl}methylidene)-2,4-dioxo-1,3-thiazolidin-3-yl]ethyl}pyrrolidine-1-sulfonamide]: 79 nM. Take `N#CCN1CC[C@@H](N2C(=O)S/C(=C\c3ccc4c(cnn4Cc4ccc(Cl)cc4C(F)(F)F)c3)C2=O)[C@H](F)C1` (relative stereo) [Compound 338]: the EC50 amounted to 24 nM.

`O=C1S/C(=C\c2ccc3c(cnn3Cc3ccc(Cl)cc3C(F)(F)F)c2)C(=O)N1CC(=O)N1CCNS1(=O)=O` [Compound 415]: the EC50 amounted to 12 nM. Then `COC(=O)[C@@H](COC(C)(C)C)N1C(=O)S/C(=C\c2ccc3c(cnn3Cc3ccc(Cl)cc3C(F)(F)F)c2)C1=O` [Compound 212, Methyl (2R)-3-tert-butoxy-2-[(5Z)-5-({1-[4-chloro-2-(trifluoromethyl)benzyl]-1H-indazol-5-yl}methylidene)-2,4-dioxo-1,3-thiazolidin-3-yl]propanoate], with 250 nM. The same measure for `O=C1S/C(=C\c2ccc3c(cnn3Cc3ccc(C(F)(F)F)cc3C(F)(F)F)c2)C(=O)N1C[C@@H]1CCCN1` [Compound 83, (5Z)-5-({1-[2,4-Bis(trifluoromethyl)benzyl]-1H-indazol-5-yl}methylidene)-3-[(2S)-pyrrolidin-2-ylmethyl]-1,3-thiazolidine-2,4-dione]: 82 nM; for `CC(C)NCCN1C(=O)S/C(=C\c2ccc3c(cnn3Cc3ccc(Cl)cc3C(F)(F)F)c2)C1=O` [Compound 48, (5Z)-5-({1-[4-Chloro-2-(trifluoromethyl)benzyl]-1H-indazol-5-yl}methylidene)-3-{2-[(1-methylethyl)amino]ethyl}-1,3-thiazolidine-2,4-dione]: 19 nM. The same measure for `COc1ccc(Cn2ncc3cc(/C=C4\SC(=O)N(C5CCC(C(=O)NS(C)(=O)=O)CC5)C4=O)ccc32)c(C(F)(F)F)c1` (stereo not drawn) [Compound 24, 4-[(5Z)-5-({1-[4-Methoxy-2-(trifluoromethyl)benzyl]-1H-indazol-5-yl}methylidene)-2,4-dioxo-1,3-thiazolidin-3-yl]-N-(methylsulfonyl) cyclohexanecarboxamide]: 12 nM; for `O=C1S/C(=C\c2ccc3c(cnn3Cc3ccc(Cl)cc3C(F)(F)F)c2)C(=O)N1Cc1csc(NS(=O)(=O)C(F)(F)F)n1` [Compound 414, N-(4-{[(5Z)-5-({1-[4-Chloro-2-(trifluoromethyl)benzyl]-1H-indazol-5-yl}methylidene)-2,4-dioxo-1,3-thiazolidin-3-yl]methyl}-1,3-thiazol-2-yl)-1,1,1-trifluoromethanesulfonamide]: 109 nM; for `COC(=O)CN1C(=O)S/C(=C\c2ccc3c(ccn3Cc3ccc(C(F)(F)F)cc3C(F)(F)F)c2)C1=O` [Compound 238, Methyl {(5Z)-5-[(1-{[2,4-bis(trifluoromethyl)phenyl]methyl}-1H-indol-5-yl)methylidene]-2,4-dioxo-1,3-thiazolidin-3-yl}acetate]: 1800 nM. `CN1C(=O)S/C(=C\c2ccc3c(cnn3Cc3ccc(Cl)cc3C(F)(F)F)c2)C1=O` [Compound 127, (5Z)-5-({1-[4-Chloro-2-(trifluoromethyl)-benzyl]-1H-indazol-5-yl}methylidene)-3-methyl-1,3-thiazolidine-2,4-dione] came in with an EC50 of 32 nM. Compound `CCN1CCC(N2C(=O)S/C(=C\c3ccc4c(c3)c(OC)nn4Cc3ccc(Cl)cc3C(F)(F)F)C2=O)CC1` [Compound 30, (5Z)-5-({1-[4-Chloro-2-(trifluoromethyl)benzyl]-3-methoxy-1H-indazol-5-yl}methylidene)-3-(1-ethylpiperidin-4-yl)-1,3-thiazolidine-2,4-dione] yielded an EC50 of 96 nM. The same measure for `CN1C[C@@H](F)[C@H](N2C(=O)S/C(=C\c3ccc4c(cnn4Cc4ccc(Cl)cc4C(F)(F)F)c3)C2=O)C1` (relative stereo) [Compound 319, (5Z)-5-({1-[4-Chloro-2-(trifluoromethyl)benzyl]-1H-indazol-5-yl}methylidene)-3-[trans-4-fluoro-1-methylpyrrolidin-3-yl]-1,3-thiazolidine-2,4-dione]: 21 nM; for `CN1CCC(F)(CN2C(=O)S/C(=C\c3ccc4c(cnn4Cc4ccc(Cl)cc4C(F)(F)F)c3)C2=O)CC1` [Compound 304, (5Z)-5-({1-[4-Chloro-2-(trifluoromethyl)benzyl]-1H-indazol-5-yl}methylidene)-3-[(4-fluoro-1-methylpiperidin-4-yl)methyl]-1,3-thiazolidine-2,4-dione]: 7 nM.

The compound `O=C1S/C(=C\c2ccc3c(cnn3Cc3ccc(Cl)cc3C(F)(F)F)c2)C(=O)N1CCN1CCNS1(=O)=O` [Compound 337, (5Z)-5-({1-[4-Chloro-2-(trifluoromethyl)benzyl]-1H-indazol-5-yl}methylidene)-3-[2-(1,1-dioxido-1,2,5-thiadiazolidin-2-yl)ethyl]-1,3-thiazolidine-2,4-dione] had an EC50 of 47 nM. Then `CN(C)CCCN1C(=O)S/C(=C\c2ccc3c(ccn3Cc3ccc(C#N)cc3C(F)(F)F)c2)C1=O` [Compound 247, 4-({5-[(Z)-{3-[3-(Dimethylamino)propyl]-2,4-dioxo-1,3-thiazolidin-5-ylidene}methyl]-1H-indol-1-yl}methyl)-3-(trifluoromethyl)benzonitrile], with 300 nM. The same measure for `[2H]C([2H])([2H])N1CC[C@@H](N2C(=O)S/C(=C\c3ccc4c(cnn4Cc4ccc(Cl)cc4C(F)(F)F)c3)C2=O)[C@H](F)C1` (relative stereo) [Compound 329, (5Z)-5-({1-[4-Chloro-2-(trifluoromethyl)benzyl]-1H-indazol-5-yl}methylidene)-3-[trans-3-fluoro-1-(1,1,1-d3)-methylpiperidin-4-yl]-1,3-thiazolidine-2,4-dione]: 15 nM; for `O=C1S/C(=C\c2ccc3c(cnn3Cc3ccc(C(F)(F)F)cc3C(F)(F)F)c2)C(=O)N1[C@@H]1CNCC[C@@H]1F` (relative stereo) [Compound 200, (5Z)-5-({1-[2,4-Bis(trifluoromethyl)benzyl]-1H-indazol-5-yl}methylidene)-3-(cis-4-fluoropiperidin-3-yl)-1,3-thiazolidine-2,4-dione]: 14 nM. The same measure for `COCCN1CCC[C@H]1CN1C(=O)S/C(=C\c2ccc3c(cnn3Cc3ccc(Cl)cc3C(F)(F)F)c2)C1=O` [Compound 152, (5Z)-5-({1-[4-Chloro-2-(trifluoromethyl)benzyl]-1H-indazol-5-yl}methylidene)-3-{[(2S)-1-(2-methoxyethyl)pyrrolidin-2-yl]methyl}-1,3-thiazolidine-2,4-dione]: 27 nM; for `O=C1S/C(=C\c2ccc3c(cnn3Cc3ccc(Cl)cc3C(F)(F)F)c2)C(=O)N1[C@H]1CCNC1` [Compound 114, (5Z)-5-({1-[4-Chloro-2-(trifluoromethyl)benzyl]-1H-indazol-5-yl}methylidene)-3-[(3S)-pyrrolidin-3-yl]-1,3-thiazolidine-2,4-dione]: 55 nM.

Compound `NC(=O)c1nn(Cc2ccc(Cl)cc2C(F)(F)F)c2ccc(/C=C3\SC(=O)N(CC(=O)O)C3=O)cc12` [Compound 417, [(5Z)-5-({3-Carbamoyl-1-[4-chloro-2-(trifluoromethyl)benzyl]-1H-indazol-5-yl}methylidene)-2,4-dioxo-1,3-thiazolidin-3-yl]acetic acid] had a half-maximal effective concentration (EC50) of 50 nM. In the case of `CS(=O)(=O)n1ccnc1CN1C(=O)S/C(=C\c2ccc3c(cnn3Cc3ccc(Cl)cc3C(F)(F)F)c2)C1=O` [Compound 410, (5Z)-5-({1-[4-Chloro-2-(trifluoromethyl)benzyl]-1H-indazol-5-yl}methylidene)-3-{[1-(methylsulfonyl)-1H-imidazol-2-yl]methyl}-1,3-thiazolidine-2,4-dione], the response was half-maximal at 25 nM (EC50). The same measure for `CC(C)N1C[C@@H](N2C(=O)S/C(=C\c3ccc4c(cnn4Cc4ccc(Cl)cc4C(F)(F)F)c3)C2=O)[C@@H](F)C1` (relative stereo) [Compound 325, (5Z)-5-({1-[4-Chloro-2-(trifluoromethyl)benzyl]-1H-indazol-5-yl}methylidene)-3-[cis-4-fluoro-1-(1-methylethyl)pyrrolidin-3-yl]-1,3-thiazolidine-2,4-dione]: 87 nM; for `O=C(O)CN1C(=O)S/C(=C\c2ccc3c(c2)c(Br)nn3Cc2ccc(Cl)cc2C(F)(F)F)C1=O` [Compound 407, [(5Z)-5-({3-Bromo-1-[4-chloro-2-(trifluoromethyl)benzyl]-1H-indazol-5-yl}methylidene)-2,4-dioxo-1,3-thiazolidin-3-yl]acetic acid]: 7 nM.
